From patent US5703205A, “Laminin a chain polypeptides from the amino terminal golbular domain” (Regents of the University of Minnesota, priority 1993, dated 1997)

What was measured:
Assay type in all cases: cell-based
[1] = system: HT-1080 human fibrosarcoma cells; experiment: Cell spreading assay on coated surfaces; details: for Cells Spread (%) / Surface Area Occupied by a Cell: wells coated with 300 μl at 100 μg/ml, 2 1/2 hour incubation
Experimental: Spreading of the adherent cells was evaluated by performing adhesion assays similar to those described above. Twenty-four well tissue culture plates (Becton Dickinson and Co., Lincoln Park, N.J.) were coated with 300 μl of laminin, synthetic peptides, or BSA at 100 μg/ml, then blocked with 2 mg/ml BSA in PBS. Three hundred microliters of a cell suspension at 5×10^4 cells/ml was added to each well, and after a 21/2 hour incubation, nonadherent cells were aspirated out of the wells. Adherent cells were fixed with 2% glutaraldehyde in PBS at 23° C. for one hour. The glutaraldehyde was then removed and the cells were stained by two different techniques. For photographic purposes, the cells were stained with Diff-Quik Solution I (American Scientific Products, McGaw Park, Ill.) for 10 minutes at 23° C. Solution I was removed, then Diff-Quik Solution II was added and the cells were stained for another 10 minutes at 23° C. Wells were washed with PBS, then representative cells were photographed with a Nikon DIAPHOT inverted phase microscope using Panatomic X Film ASA32 (Eastman Kodak, Rochester, N.Y.). Adherent cells to be quantitated for spreading were stained overnight at 23° C. with 500 μl of a solution containing 0.12% (w/v) Coomassie Brilliant Blue R (Sigma Chemical Co.), 5% (v/v) acetic acid, and 50% (v/v) ethanol. Wells were washed three times with 500 μl of PBS and cell spreading was then quantitated by measuring the average surface area occupied by a cell using an Opti-Max Image Analyzer. Thirty cells were measured per well; each experiment was done in quadruplicate and repeated three times. Cells spread the best on peptide R17 and R18 and occupy an area of ~30% of that seen for cells on laminin-coated surfaces. On surfaces coated with peptides R19, R20, and R32, less cell spreading was observed; cells occupied an area ~20% of that seen on intact laminin. Cell spreading on ovalbumin (negative control) was less than 10% of that seen on laminin but the cells were barely adherent under these last conditions.

[2] = system: murine melanoma (C10); experiment: Direct cell adhesion to coated surfaces (Table II); details: wells coated with 5 μg, 2 hours, % of total cells added
Source text: (§1) The human fibrosarcoma HT-1080 cell line was obtained from the ATCC. The murine melanoma K-1735-C10 (low metastatic) and K-1735-M4 (high metastatic) cell lines, murine UV-2237-MM fibrosarcoma cell line, human renal carcinoma SN12 PM-6 (high metastatic) cell line, and human colon carcinoma KM12 C (low metastatic) and KM12 SM (high metastatic) cell lines were originally provided by Dr. I. J. Fidler (M.D., Anderson Hospital, University of Texas Health Sciences Center, Houston, Tex.). The MM fibrosarcoma cell line was maintained in DME (GIBCO Laboratories, Grand Island, N.Y.) containing 10% FBS, the murine melanomas were maintained in DMEM containing 10% calf serum, the human fibrosarcoma cells were maintained in EMEM containing 10% heat inactivated FBS, and the human renal and colon carcinoma cells were grown in EMEM containing 10% FBS, vitamins, and 1 mM sodium pyruvate. Cells were passaged for 4 to 5 weeks and then replaced from frozen stocks of early passage cells to minimize phenotypic drift. Cells were maintained at 37° C. in a humidified incubator containing 5% CO2.
(§2) The direct adhesion of cells to protein or peptide coated surfaces was performed as described in Skubitz et al., Exp. Cell Res., 173, 349-360 (1987) and Charonis et al., supra (1988). Briefly, radiolabeled cells were added to 96-well microtiter plates coated with various concentrations of synthetic peptides, laminin, or BSA (0.02 μg/well-50 μg/well from 50 μl solutions) for various lengths of time. After the incubation period, loosely or nonadherent cells were removed by washing the wells three times. Adherent cells weresolubilized and quantitated in a scintillation counter. More specifically, cultures of cells which were 60-80% confluent were metabolically labeled for 24 hours with the addition of 3 μCi/ml of ^3 H-td (tritiated thymidine). On the day of the assay, the cells were harvested by trypsinization, the trypsin was inhibited by the addition of serum, and the cells were washed free of this mixture and resuspended in DMEM buffered with HEPES at pH 7.2. The adhesion medium also contained 2 mg/ml BSA. The cells were adjusted to a concentration of 3-4×10^4/ ml, and 100 μl of this cell suspension was added to the wells. The assay mixture was then incubated at 37° C. for 120 minutes. At the end of the incubation, the wells were washed with warm DMEM/Hepes containing 2 mg/ml BSA, and the adherent population was solubilized with 0.5N NaOH contained 1% SDS. The solubilized cells were then quantitated using a liquid scintillation counter.
(§3) Microtiter wells were adsorbed with peptide R18, laminin, or BSA and a variety of tumor cell lines were tested for the ability to adhere to the ligands. The six different tumor cell lines selected for this study were of murine or human origin and, in most cases, of either high or low metastatic capacity. As reported in Table II, peptide R18 was also capable of promoting the adhesion of all six cell lines.
(§4) *Microtiter wells were coated with 5 μg of the peptide or proteins and […]

[3] = system: human colon carcinoma (KI2SM); experiment: Direct cell adhesion to coated surfaces (Table II); details: wells coated with 5 μg, 2 hours, % of total cells added
Source text: as §1, §2, §3, §4

[4] = system: human renal carcinoma (SN12 PM6); experiment: Direct cell adhesion to coated surfaces (Table II); details: wells coated with 5 μg, 2 hours, % of total cells added
Source text: as §1, §2, §3, §4

[5] = system: murine fibrosarcoma (MM); experiment: Direct cell adhesion to coated surfaces (Table II); details: wells coated with 5 μg, 2 hours, % of total cells added
Source text: as §1, §2, §3, §4

[6] = system: murine melanoma (M4); experiment: Direct cell adhesion to coated surfaces (Table II); details: wells coated with 5 μg, 2 hours, % of total cells added
Source text: as §1, §2, §3, §4

[7] = system: human colon carcinoma (K12C); experiment: Direct cell adhesion to coated surfaces (Table II); details: wells coated with 5 μg, 2 hours, % of total cells added
Source text: as §1, §2, §3, §4

[8] = system: HT-1080 human fibrosarcoma cells; experiment: Direct adhesion of radiolabeled cells to peptide or protein coated microtiter wells; details: increasing concentrations adsorbed, up to 5 μg/well; 120 minutes
Experimental: FIG. 3 reports results in microtiter wells adsorbed with increasing concentrations of HPLC-purified peptides R17 (.smallcircle.) R18 (.quadrature.), or R19 (Δ), R20 (.circle-solid.), R32 (.box-solid.), laminin (.tangle-solidup.), or ovalbumin (.diamond.) and radiolabeled HT-1080 human fibrosarcoma cells that were allowed to adhere for 2 hours after being released from flasks with EDTA/trypsin. Each value represents the mean of four separate determinations, and the SEM was less than 10% in each case.
The direct adhesion of cells to protein or peptide coated surfaces was performed as described in Skubitz et al., Exp. Cell Res., 173, 349-360 (1987) and Charonis et al., supra (1988). Briefly, radiolabeled cells were added to 96-well microtiter plates coated with various concentrations of synthetic peptides, laminin, or BSA (0.02 μg/well-50 μg/well from 50 μl solutions) for various lengths of time. After the incubation period, loosely or nonadherent cells were removed by washing the wells three times. Adherent cells weresolubilized and quantitated in a scintillation counter. […] The solubilized cells were then quantitated using a liquid scintillation counter.
In this case, increasing concentrations of the five synthetic peptides were adsorbed to microtiter wells. Radiolabeled HT-1080 human fibrosarcoma cells were incubated in the wells for 120 minutes and the adhesion of cells was quantitated. […]

Substance | Cells Spread (%) [1] | Surface Area Occupied by a Cell [1] | Cell Adhesion (%) to Coated Surfaces [2] | Cell Adhesion (%) to Coated Surfaces [3] | Cell Adhesion (%) to Coated Surfaces [4] | Cell Adhesion (%) to Coated Surfaces [5] | Cell Adhesion (%) to Coated Surfaces [6] | Cell Adhesion (%) to Coated Surfaces [7] | cell adhesion to coated wells (in words) [8] | area occupied by cells relative to that on laminin-coated surfaces ([1]; HT-1080 cell spreading, relative to intact laminin)
Laminin | 95% | 611 ± 79 um^2 | 80% | 36% | 40% | 43% | 50% | 25% | – | –
Ovalbumin: negative control protein | 0% | 71 ± 41 um^2 | – | – | – | – | – | – | no cell adhesion was observed | less than 10%
